Values of other authors as cited in patent US9211341B2, “Method of manufacturing a pharmaceutical composition having chelating type complex micelles” (Original BioMedicals Co., Ltd, priority 2011, dated 2015).

- blood half-life (βt1/2) (after injection): 8.8 min
- time to reach steady state after distribution to tissues and dephosphorylation (after injection): about 10 minutes
- concentration in normal cells (kidney, lung, liver, skin, bone marrow, intestine, spleen) relative to cancer cells (following injection): 10 times
- plasma clearance, fraction cleared (within 6 minutes): approximately 90%
SMILES: NCCCNCCSP(=O)(O)O [amifostine]
- time at which the cytoprotective effect appears (after injection): 5 to 10 min
